Experimental data from US20140357706A1, “Stearate Compounds” (THE UAB RESEARCH FOUNDATION, priority 2011, published 2014).

What was measured:
[1] = tested on: p21^CIP1/WAF1 and p27^KIP1 mRNA; assay: Quantitative real-time RT-PCR for p21CIP1/WAF1 and p27KIP1 in Hs578T cells; type: cell-based, human; conditions: normalized to 18S rRNA; vs control, P<0.05
Description: Total RNA was extracted and purified with TRIZOL Reagent (GIBCO Invitrogen, Carlsbad, Calif.). The first-strand complementary DNA (cDNA) synthesis was achieved using a commercially available kit (New England BioLabs, Beverly, Mass.) according to the protocol from the manufacturer. Briefly, 1 μg of total RNA was reverse-transcribed using M-MuLV reverse transcriptase (25 U) and dT23VN primer (5 μM) in a final volume of 25 μl.
Quantitative real-time reverse-transcription polymerase chain reaction (RT-PCR) cDNA samples were diluted to appropriate concentrations and used for a real-time RT-PCR assay in a volume of 25 μl, containing 2 μl DNA template, 12.5 μl SYBR® Green PCR Master Mix (Applied Biosystems, Foster City, Calif.) and 0.4 μM each specific primer. The gene expression of p21^CIP1/WAF1 and p27^KIP1 were determined by real-time quantitative RT-PCR and the house-keeping gene 18S ribosomal RNA (rRNA) was used as an internal control to normalize the variable RNA loading in each sample. […] The fluorescence intensity corresponding to the CT was used to quantitate the target cDNA in the mixture of samples with […] dilutions, employing the standard curve for each target gene. Sequence Detector Software (Applied Biosystems) was used to extract the data of the quantitative real-time RT-PCR. […]

Rho mRNA = assay: RT-PCR for RhoA, RhoB, RhoC in Hs578T cells; type: cell-based, human
Description: In total, 30-40% confluent Hs578T cells were treated with stearate (50 μM) for 48 hours after starvation for 24 hours. Total RNA was extracted and reverse-transcribed as described in RT-PCR for p21^CIP1/WAF1 and p27^[…]. The PCR assay was performed in a volume of 50 μl, containing 4μl DNA template, 45 μl Platinum PCR Supermix (Invitrogen) and 0.2 μM each specific primer. PCR specificity and efficiency were improved by using hot start PCR with 3 min pre-denaturation, at 95° C., and 30 cycles of denaturation (95° C., 30 s), annealing (52° C., 30 s) and 1 min extension (72° C.). The PCR products (20 INS>μl) were analyzed by means of 1% agarose in tris-acetate ethylenediaminetetraacetic acid gel electrophoresis and visualized by ethidium bromide staining under ultraviolet; digital images were analyzed by means of a FUJI Medical System (FUJIFILM) and the bands quantified by Quantity Software (FUJIFILM). […] was used to normalize the variable RNA loading in each sample. The calculated result represents the relative expression levels of target genes compared with its expression in the control group after the value of target genes was normalized to GAPDH expression levels.

3T3L1 cells = assay: 3T3L1 cell differentiation (oil red O staining); type: cell-based, mouse; conditions: 50 μM during differentiation
Description: 3T3L1 mouse fibroblast cells (ATCC, CL-173™) were maintained according to the manufacture's protocol, in Dulbecco's modified eagle's medium (DMEM) containing 10% Fetal Bovine Serum and antibiotics (M1 medium). Adipocyte differentiation was performed according to standard procedures (42). Briefly, the 3T3L1 fibroblasts were seeded at 30% confluence and allowed to grow to near 100% confluence. On the day after reaching maximum confluence, conversion was induced by replacing the M1 medium with M1 medium containing insulin (5 μg/ml), dexamethasone (0.25 μM), and 3-isobutyl-1-methyl-xanthine (0.5 mM). After 2 days, the cells were changed to M1 medium with insulin (5 μg/ml) for an additional 2 days. […]
50 μM of stearate, oleate or linoleate was used to treat 3T3L1 cells as this concentration is centered within the normal range for non-esterified stearate in the plasma of humans. […] The concentration of stearate in the solution was detected by use of a NEFA C kit. […]
Cellular lipids were stained with oil red O. Briefly, identical numbers of 3T3L1 cells were placed in 6-well plates, cultured and converted to adipocytes as described above. […] 200 cells were counted under the microscope in each sample, and the percentage of converted adipocytes was calculated. […] The oil red O was then eluted with 1 ml 100% isopropanol, and the OD was measured at 520 nm in a spectrophotometer.

SMILES: CCCCCCCCCCCCCCCCCC(=O)O [stearate, Stearic acid]
- p21^CIP1/WAF1 mRNA expression [1]: increased
- Rho mRNA expression (Rho mRNA; over 24 h): neither EGF nor stearate affected
- RhoA mRNA expression (Rho mRNA; stearate 50 μM for 48 h): significantly decreased
- RhoB mRNA expression (Rho mRNA; stearate 50 μM for 48 h): remained unchanged
- RhoC mRNA expression (Rho mRNA; stearate 50 μM for 48 h): significantly decreased
- Total Rho mRNA expression (Rho mRNA; stearate 50 μM for 48 h): significantly decreased
- Oil red O eluted, OD value (3T3L1 cells): no difference
- Percentage of differentiated adipocytes (3T3L1 cells; vs control): no significant difference
